# From ChEMBL document CHEMBL2434943, “Elaboration of thorough simplified vinca alkaloids as antimitotic agents based on pharmacophore similarity” (Eur J Med Chem, 2013)
# Structures can show the parent of a compound that is named as a salt. The source made the active and inactive calls. No cut-off for these calls is given here.
# Columns and labels:
# HepG2 [1] = assay: Cytotoxicity against adriamycin-resistant human HepG2 cells assessed as growth inhibition after 72 hrs by MTT assay; format: functional, cell-based; settings: HepG2, 72 h
# HepG2 [2] = assay: Cytotoxicity against human HepG2 cells assessed as growth inhibition after 72 hrs by MTT assay; format: functional, cell-based; settings: HepG2, 72 h
# K562 = assay: Cytotoxicity against human K562 cells assessed as growth inhibition after 72 hrs by MTT assay; format: functional, cell-based; settings: K562, 72 h
# MDA-MB-231 = assay: Cytotoxicity against human MDA-MB-231 cells assessed as growth inhibition after 72 hrs by MTT assay; format: functional, cell-based; settings: MDA-MB-231, 72 h
# MCF7 = assay: Cytotoxicity against human MCF7 cells assessed as growth inhibition after 72 hrs by MTT assay; format: functional, cell-based; settings: MCF7, 72 h
# [3] = Cytotoxicity against KM mouse splenic lymphocytes assessed as growth inhibition up to 50 uM after 72 hrs by MTT assay; settings: splenic lymphocyte
# Tubulin (Homo sapiens) = Tubulin (Homo sapiens) (UniProt P68371+Q9H4B7+P0DPH7+P68366+Q13509+Q71U36+P04350+Q3ZCM7+P07437+P68363+Q9BQE3+Q6PEY2+Q13885+Q9BVA1+Q9BUF5); assay: Inhibition of tubulin polymerization (unknown origin) after 90 mins; format: protein-complex assay
# HepG2 [4] = assay: Antimitotic activity in human HepG2 cells assessed as cell morphological changes at 18 nM after 12 hrs by DAPI staining-based laser scanning confocal microscopic analysis; format: functional
# [5] = Cytotoxicity against KM mouse splenic lymphocytes assessed as growth inhibition after 72 hrs by MTT assay; settings: Splenic lymphocyte
inhibition (Tubulin (Homo sapiens)),SMILES,IC50 (HepG2 [1]) [µM],IC50 (HepG2 [2]) [µM],IC50 (K562) [µM],IC50 (MDA-MB-231) [µM],IC50 (MCF7) [µM],Activity [3],Activity (HepG2 [4]),IC50 [5] [µM]
,CN(C)c1ccc(/C=C/C2=Nc3ccccc3C2(C)C)cc1,22.1,17.9,25.7,15.1,8.1,,,
,CC1(C)C(/C=C/c2ccccc2[N+](=O)[O-])=Nc2ccccc21,9.74,12.7,13,3.77,1.75,,,
,COc1cc(/C=C/C2=Nc3ccccc3C2(C)C)cc(OC)c1OC,10.8,12.7,15.3,4.13,1.76,Non-toxic,,
,COc1ccc(/C=C/C2=Nc3ccccc3C2(C)C)cc1,47,20.8,19.9,15.6,10.4,,,
,CC1(C)C(/C=C/c2c[nH]c3cc(Cl)ccc23)=Nc2ccccc21,9.98,18.1,13,20.1,19,,,
,Cc1ccc(/C=C/C2=Nc3ccccc3C2(C)C)cc1,> 50,43.9,26.1,22,13.2,,,
Active,CC[C@]1(O)C[C@@H]2CN(CCc3c([nH]c4ccccc34)[C@@](C(=O)OC)(c3cc4c(cc3OC)N(C)[C@H]3[C@@](O)(C(=O)OC)[C@H](OC(C)=O)[C@]5(CC)C=CCN6CC[C@]43[C@@H]65)C2)C1,,,,,,,Active,
,CCC12C=CCN3CC[C@@]4(c5ccc(OC)cc5N(C)[C@H]4[C@@](O)(C(=O)OC)[C@@H]1OC(C)=O)[C@@H]32 (stereo partly specified) [VINDOLINE],> 50,> 50,> 50,> 50,> 50,,,
,Cc1[nH]c2ccccc2c1/C=C/C1=Nc2ccccc2C1(C)C,4.41,15.4,22.7,32.6,6.25,,,
,CCC1=C[C@@H]2CN3CCc4c([nH]c5ccccc45)[C@@](C(=O)OC)(C2)[C@@H]13,> 50,> 50,> 50,> 50,> 50,,,
,COc1ccc(/C=C/C2=Nc3ccccc3C2(C)C)cc1OC,28.6,35,37.1,9.11,12,,,
,CC1(C)C(/C=C/c2cccc(C(F)(F)F)c2)=Nc2ccccc21,9.54,11.7,9.83,3.2,2.13,,,36.3
,CC1(C)C(/C=C/c2ccc([N+](=O)[O-])cc2)=Nc2ccccc21,2.49,5.55,4.32,2.01,0.96,,,20.7
,CC1(C)C(/C=C/c2c[nH]c3ccccc23)=Nc2ccccc21,12.2,17.9,23,11.6,3.88,Non-toxic,,
,CC1(C)C(/C=C/c2c[nH]c3cc(F)ccc23)=Nc2ccccc21,14.9,9.87,20.2,24.4,3.47,,,
,CCN(CC)c1ccc(/C=C/C2=Nc3ccccc3C2(C)C)cc1,15.1,22.9,28.2,16.1,11.8,,,
,COc1ccc2[nH]cc(/C=C/C3=Nc4ccccc4C3(C)C)c2c1,23.4,18.5,16.9,14,7.05,,,
,CC1(C)C(/C=C/c2c[nH]c3cccc(C#N)c23)=Nc2ccccc21,3.18,9.22,15.8,18.8,8.95,Non-toxic,,
,COc1ccccc1/C=C/C1=Nc2ccccc2C1(C)C,12.6,22,22.9,10.7,5.13,,,
,CC[C@]1(O)C[C@@H]2CN(CCc3c([nH]c4ccccc34)[C@@](C(=O)OC)(c3cc4c(cc3OC)N(C)[C@H]3[C@@](O)(C(=O)OC)[C@H](OC(C)=O)[C@]5(CC)C=CCN6CC[C@]43[C@@H]65)C2)C1 [VINBLASTINE SULFATE],0.056,0.019,0.016,0.0083,0.007,,,
,CC1(C)C(/C=C/c2ccc(Br)cc2)=Nc2ccccc21,9.92,15.6,20.2,5.16,5.26,,,
Active,CC1(C)C(/C=C/c2ccc(C(F)(F)F)cc2)=Nc2ccccc21,7.91,9.49,8.87,2.63,1.45,,,35.4
,Cc1ccc2[nH]cc(/C=C/C3=Nc4ccccc4C3(C)C)c2c1,6.13,18.7,21.2,14.6,15.9,,,
,Cc1c(/C=C/C2=Nc3ccccc3C2(C)C)c2ccccc2n1C,3.34,35.9,23.2,38.5,17.1,,,
,Cc1cccc(/C=C/C2=Nc3ccccc3C2(C)C)c1,10.2,16.4,20.7,10.1,8.31,,,
,CC[C@]1(O)C[C@@H]2CN(CCc3c([nH]c4ccccc34)[C@@](C(=O)OC)(c3cc4c(cc3OC)N(C)[C@H]3[C@@](O)(C(=O)OC)[C@H](OC(C)=O)[C@]5(CC)C=CCN6CC[C@]43[C@@H]65)C2)C1 [VINBLASTINE],,,,,,,,0.0016
Active,COc1cccc(/C=C/C2=Nc3ccccc3C2(C)C)c1,9.94,11.4,9.64,3.1,2.19,,,
,Cn1cc(/C=C/C2=Nc3ccccc3C2(C)C)c2ccccc21,18.7,39.4,20.8,22.4,12.6,,,
,CC1(C)C(/C=C/c2c[nH]c3c([N+](=O)[O-])cccc23)=Nc2ccccc21,4,16.8,21,26.1,11.2,,,
,CC1(C)C(/C=C/c2c[nH]c3ccc(Br)cc23)=Nc2ccccc21,9.1,21.5,20.1,21.8,21,,,
